Experimental data taken from patent US10294202B2, “Pyrrolidinones as herbicides” (FMC Corporation, priority 2013, dated 2019).

Assays:
nightshade = experiment: Test E preemergence herbicide test; format: in vivo, Solanum ptycanthum; parameters: key: 0 = no effect, 100 = complete control
Source text: (§1) Seeds of plant species selected from corn (Zea mays), soybean (Glycine max), velvetleaf (Abutilon theophrasti), lambsquarters (Chenopodium album), wild poinsettia (Euphorbia heterophylla), pigweed, palmer (palmer pigweed, Amaranthus palmeri), waterhemp (common waterhemp, Amaranthus rudis), surinam grass (Brachiaria decumbens), crabgrass, large (large crabgrass, Digitaria sanguinalis), crabgrass, Brazil (Brazilian crabgrass, Digitaria horizontalis), panicum, fall (fall panicum, Panicum dichotomiflorum), foxtail, giant (giant foxtail, Setaria faberii), foxtail, green (green foxtail, Setaria viridis), goosegrass (Eleusine indica), johnsongrass (Sorghum halepense), ragweed (common ragweed, Ambrosia elatior), barnyardgrass (Echinochloa crus-galli), sandbur (southern sandbur, Cenchrus echinatus), arrowleaf […] rhombifolia), ryegrass, Italian (Italian ryegrass, Lolium multiflorum), dayflower, VA (Virginia dayflower, Commelina virginica), field bindweed (Convolvulus arvensis), morningglory (Ipomoea coccinea), nightshade (eastern black nightshade, Solanum ptycanthum), kochia (Kochia scoparia), nutsedge, yellow (yellow nutsedge, Cyperus esculentus), cocklebur (common cocklebur, Xanthium strumarium), smartweed (ladysthumb smartweed, Polygonum Persicaria) and beggarticks (hairy beggarticks, Bidens pilosa), were planted into a silt loam soil and treated preemergence with test chemicals formulated in a non-phytotoxic solvent mixture which included a surfactant. Treated plants and controls were maintained in a greenhouse for 21 days, after which time all species were compared to controls and visually evaluated. Plant response ratings, summarized in Table E, are based on a scale of 0 to 100 where 0 is no effect and 100 is complete control. A dash (-) response means no test result.

oat, wild = experiment: Test D pre-/postemergence herbicide test; format: in vivo, Avena fatua; conditions: Preemergence, scale 0 to 100 (0 no effect, 100 complete control)
Outline: (§2)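 Visual ratings from 0 (no effect) to 100 (complete control) were made against untreated controls 7 to 21 days after treatment. Application was both preemergence, on silt loam soil, and postemergence, to 1- to 4-leaf plants 2-18 cm tall; compounds were formulated in a non-phytotoxic surfactant-containing solvent.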

windgrass = experiment: Test D pre-/postemergence herbicide test; format: in vivo, Apera spica-venti; conditions: Preemergence, scale 0 to 100 (0 no effect, 100 complete control)
Outline: as §2

oilseed rape = experiment: Test D pre-/postemergence herbicide test; format: in vivo, Brassica napus; conditions: Preemergence, scale 0 to 100 (0 no effect, 100 complete control)
Outline: as §2

bluegrass = experiment: Test D pre-/postemergence herbicide test; format: in vivo, Poa annua; conditions: Preemergence; for Plant response rating, Bluegrass: scale 0 to 100 (0 no effect, 100 complete control); for Plant response rating: 250 g ai/ha, Bluegrass, scale 0 to 100
Outline: as §2

sandbur = experiment: Test E preemergence herbicide test; format: in vivo, Cenchrus echinatus; parameters: key: 0 = no effect, 100 = complete control
Source text: as §1

mustard, wild = experiment: Test D pre-/postemergence herbicide test; format: in vivo, Sinapis arvensis; conditions: Preemergence; for Plant response rating, Mustard, Wild: scale 0 to 100 (0 no effect, 100 complete control); for Plant response rating: 250 g ai/ha, Mustard, Wild, scale 0 to 100
Outline: as §2

lambsquarters = experiment: Test D pre-/postemergence herbicide test; format: in vivo, Chenopodium album; conditions: Preemergence; for Plant response rating, Lambsquarters: scale 0 to 100 (0 no effect, 100 complete control); for Plant response rating: 250 g ai/ha, Lambsquarters, scale 0 to 100
Outline: as §2

barley, spring = experiment: Test D pre-/postemergence herbicide test; format: in vivo, Hordeum vulgare; conditions: Preemergence; for Plant response rating, Barley, Spring: scale 0 to 100 (0 no effect, 100 complete control); for Plant response rating: 250 g ai/ha, Barley, Spring, scale 0 to 100
Outline: as §2

Structure (SMILES) | Plant response rating, Nightshade (nightshade; 31 g ai/ha) | Plant response rating, Nightshade (nightshade; 62 g ai/ha) | Plant response rating, Nightshade (nightshade; 125 g ai/ha) | Plant response rating, Nightshade (nightshade; 250 g ai/ha) | Plant response rating, Oat, Wild (oat, wild; 62 g ai/ha) | Plant response rating, Oat, Wild (oat, wild; 125 g ai/ha) | Plant response rating, Oat, Wild (oat, wild; 31 g ai/ha) | Plant response rating, Oat, Wild (oat, wild; 250 g ai/ha) | Plant response rating, Windgrass (windgrass; 62 g ai/ha) | Plant response rating, Windgrass (windgrass; 125 g ai/ha) | Plant response rating, Windgrass (windgrass; 31 g ai/ha) | Plant response rating, Windgrass (windgrass; 250 g ai/ha) | Plant response rating, Oilseed Rape (oilseed rape; 62 g ai/ha) | Plant response rating, Oilseed Rape (oilseed rape; 125 g ai/ha) | Plant response rating, Oilseed Rape (oilseed rape; 31 g ai/ha) | Plant response rating, Oilseed Rape (oilseed rape; 250 g ai/ha) | Plant response rating, Bluegrass (bluegrass; 62 g ai/ha) | Plant response rating, Bluegrass (bluegrass; 125 g ai/ha) | Plant response rating, Bluegrass (bluegrass; 31 g ai/ha) | Plant response rating (bluegrass) | further results
O=C1NC[C@H](c2cccc(C(F)(F)F)c2)[C@H]1C(=O)Nc1ccccc1F [Compound 204, (3R,4S)—N-(2-fluorophenyl)-2-oxo-4-[3-(trifluoromethyl)phenyl]-3-pyrrolidinecarboxamide] | 0 | 20 | 100 | 100 | 25 | 60 | 0 | 40 | 65 | 85 | 50 | 95 | 0 | 0 | 0 | 0 | 0 | 15 | 0 | 35 | Plant response rating, Sandbur (sandbur; 31 g ai/ha): 20; Plant response rating, Sandbur (sandbur; 62 g ai/ha): 50; Plant response rating, Sandbur (sandbur; 125 g ai/ha): 75; Plant response rating, Sandbur (sandbur; 250 g ai/ha): 80; Plant response rating, Mustard, Wild (mustard, wild; 62 g ai/ha): 20; Plant response rating, Mustard, Wild (mustard, wild; 125 g ai/ha): 20; Plant response rating, Mustard, Wild (mustard, wild; 31 g ai/ha): 0; Plant response rating (mustard, wild): 20; Plant response rating, Lambsquarters (lambsquarters; 62 g ai/ha): 30; Plant response rating, Lambsquarters (lambsquarters; 125 g ai/ha): 65; Plant response rating, Lambsquarters (lambsquarters; 31 g ai/ha): 35; Plant response rating (lambsquarters): 90; Plant response rating, Barley, Spring (barley, spring; 62 g ai/ha): 15; Plant response rating, Barley, Spring (barley, spring; 125 g ai/ha): 20; Plant response rating, Barley, Spring (barley, spring; 31 g ai/ha): 0; Plant response rating (barley, spring): 45
O=C1NC[C@H](c2cccc(C(F)(F)F)c2)[C@H]1C(=O)Nc1cccc(F)c1F [Compound 206] | 0 | 0 | 5 | 10 | 35 | 40 | 25 | 55 | 75 | 90 | 75 | 90 | 0 | 0 | 0 | 5 | 30 | 35 | 0 | 70 | Plant response rating, Sandbur (sandbur; 31 g ai/ha): 65; Plant response rating, Sandbur (sandbur; 62 g ai/ha): 80; Plant response rating, Sandbur (sandbur; 125 g ai/ha): 95; Plant response rating, Sandbur (sandbur; 250 g ai/ha): 98; Plant response rating, Mustard, Wild (mustard, wild; 62 g ai/ha): 0; Plant response rating, Mustard, Wild (mustard, wild; 125 g ai/ha): 0; Plant response rating, Mustard, Wild (mustard, wild; 31 g ai/ha): 0; Plant response rating (mustard, wild): 75; Plant response rating, Lambsquarters (lambsquarters; 62 g ai/ha): 80; Plant response rating, Lambsquarters (lambsquarters; 125 g ai/ha): 85; Plant response rating, Lambsquarters (lambsquarters; 31 g ai/ha): 50; Plant response rating (lambsquarters): 90; Plant response rating, Barley, Spring (barley, spring; 62 g ai/ha): 35; Plant response rating, Barley, Spring (barley, spring; 125 g ai/ha): 40; Plant response rating, Barley, Spring (barley, spring; 31 g ai/ha): 5; Plant response rating (barley, spring): 55
